Laboratory results as given in ChEMBL document CHEMBL5113492, “Design, synthesis, and biological evalution of bifunctional inhibitors against Hsp90-HDAC6 interplay” (Eur J Med Chem, 2022).
Activity calls are given as the source filed them. No cut-off for these calls is given here.

Legend:
Mus musculus = assay: In vivo inhibition of HSP90 in human NCI-H1975 cells xenografted with NSG mouse assessed as downregulation of EGFR expression at 25 mg/kg,ip measured after 6 weeks by immunohistochemistry analysis; format: functional, organism-based
[1] = molecular target: T1, Heat shock protein HSP90 (Homo sapiens) (UniProt P07900+P08238); assay: Inhibition of HSP90 in human NCI-H1975 cells assessed as downregulation of Met expression at 0.05 to 2 uM incubated for 24 hrs by western blot analysis; format: cell-based; conditions: dose 0.05-2 µM, DDE = dose-dependent effect
[2] = Toxicity in NSG mouse xenografted with human NCI-H1975 cells assessed as change in number of retina at 50 mg/kg,ip measured after 6 weeks by H and E staining based assay; format: organism-based; conditions: in vivo, 1008 h
[3] = molecular target: T2, Protein deacetylase HDAC6 (Homo sapiens) (UniProt Q9UBN7); assay: Inhibition of HDAC6 in human NCI-H1975 cells assessed as increase in acetylation of alpha tubulin at 1 uM incubated for 24 hrs by western blot analysis; format: cell-based
T2 sequence (whole entry): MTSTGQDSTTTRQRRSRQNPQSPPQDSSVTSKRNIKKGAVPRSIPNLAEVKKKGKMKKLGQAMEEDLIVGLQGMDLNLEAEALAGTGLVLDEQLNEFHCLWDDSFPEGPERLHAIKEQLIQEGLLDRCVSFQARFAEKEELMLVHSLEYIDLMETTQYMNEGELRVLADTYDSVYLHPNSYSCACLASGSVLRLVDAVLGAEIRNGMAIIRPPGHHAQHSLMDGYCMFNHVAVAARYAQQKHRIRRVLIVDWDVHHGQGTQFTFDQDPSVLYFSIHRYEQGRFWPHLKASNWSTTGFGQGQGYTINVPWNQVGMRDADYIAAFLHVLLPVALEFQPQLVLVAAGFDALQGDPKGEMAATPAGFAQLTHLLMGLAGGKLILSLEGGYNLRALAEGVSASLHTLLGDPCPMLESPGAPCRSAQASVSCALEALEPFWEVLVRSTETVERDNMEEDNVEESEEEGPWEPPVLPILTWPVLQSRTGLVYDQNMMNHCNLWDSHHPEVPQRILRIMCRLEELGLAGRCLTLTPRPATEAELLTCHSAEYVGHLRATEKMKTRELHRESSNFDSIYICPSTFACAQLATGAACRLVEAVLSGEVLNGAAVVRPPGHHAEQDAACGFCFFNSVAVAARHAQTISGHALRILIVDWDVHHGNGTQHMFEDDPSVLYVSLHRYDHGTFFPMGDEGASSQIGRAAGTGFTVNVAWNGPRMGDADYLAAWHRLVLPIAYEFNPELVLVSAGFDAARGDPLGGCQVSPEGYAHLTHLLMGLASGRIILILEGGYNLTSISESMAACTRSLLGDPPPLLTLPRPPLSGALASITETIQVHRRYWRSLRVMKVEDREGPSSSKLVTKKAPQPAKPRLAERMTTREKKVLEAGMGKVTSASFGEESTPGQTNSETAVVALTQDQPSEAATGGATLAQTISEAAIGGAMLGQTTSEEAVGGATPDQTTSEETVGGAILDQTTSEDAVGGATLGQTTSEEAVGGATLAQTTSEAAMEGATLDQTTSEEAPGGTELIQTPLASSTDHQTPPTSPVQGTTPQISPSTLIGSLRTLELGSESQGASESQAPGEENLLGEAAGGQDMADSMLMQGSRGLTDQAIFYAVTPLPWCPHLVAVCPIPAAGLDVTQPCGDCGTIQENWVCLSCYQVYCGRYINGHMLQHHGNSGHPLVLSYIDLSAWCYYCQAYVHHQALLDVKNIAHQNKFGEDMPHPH

NCI-H1975 = assay: Induction of apoptosis in human NCI-H1975 cells assessed as late apoptotic cells at 2 uM incubated for 24 hrs by Annexin-V/propidium iodide staining based flow cytometry analysis; format: functional
Histone deacetylase 7 = molecular target: T3, Histone deacetylase 7 (Homo sapiens, UniProt Q8WUI4); assay: Inhibition of HDAC7 (unknown origin) using fluorogenic substrate incubated for 30 mins by fluorescence plate reader
T3 sequence (Q8WUI4 whole entry): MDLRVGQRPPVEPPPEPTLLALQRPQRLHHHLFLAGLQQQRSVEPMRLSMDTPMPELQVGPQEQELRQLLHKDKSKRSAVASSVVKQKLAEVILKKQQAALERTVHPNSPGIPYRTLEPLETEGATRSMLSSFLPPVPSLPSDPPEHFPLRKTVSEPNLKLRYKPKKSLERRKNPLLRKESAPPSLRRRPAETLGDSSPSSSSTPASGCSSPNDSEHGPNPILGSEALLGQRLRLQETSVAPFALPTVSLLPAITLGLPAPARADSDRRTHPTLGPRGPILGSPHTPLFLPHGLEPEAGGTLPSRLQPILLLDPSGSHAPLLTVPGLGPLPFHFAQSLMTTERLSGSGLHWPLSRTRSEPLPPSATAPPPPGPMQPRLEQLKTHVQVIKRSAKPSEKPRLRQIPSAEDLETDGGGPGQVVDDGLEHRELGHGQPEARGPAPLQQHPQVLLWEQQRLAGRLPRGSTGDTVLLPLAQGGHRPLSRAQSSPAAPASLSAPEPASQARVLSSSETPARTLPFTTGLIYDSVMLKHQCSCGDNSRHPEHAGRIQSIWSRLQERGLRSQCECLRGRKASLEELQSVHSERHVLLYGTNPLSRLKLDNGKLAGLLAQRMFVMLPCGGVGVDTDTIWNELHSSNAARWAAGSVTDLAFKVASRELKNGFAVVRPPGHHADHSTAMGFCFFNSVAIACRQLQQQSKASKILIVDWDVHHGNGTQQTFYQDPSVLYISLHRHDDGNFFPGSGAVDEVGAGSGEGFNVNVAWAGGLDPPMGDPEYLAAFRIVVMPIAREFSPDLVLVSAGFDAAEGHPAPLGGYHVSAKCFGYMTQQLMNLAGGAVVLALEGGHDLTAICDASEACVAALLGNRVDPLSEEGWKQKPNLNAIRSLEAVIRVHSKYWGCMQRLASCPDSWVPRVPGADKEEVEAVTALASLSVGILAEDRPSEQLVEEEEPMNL

[4] = molecular target: T1, Heat shock protein HSP90 (Homo sapiens); assay: Inhibition of HSP90 in human NCI-H1975 cells assessed as downregulation of EGFR expression at 0.05 to 2 uM incubated for 24 hrs by western blot analysis; format: cell-based; conditions: dose 0.05-2 µM, DDE = dose-dependent effect
[5] = Toxicity in NSG mouse xenografted with human NCI-H1975 cells assessed as histological abnormalities in ocular region at 25 mg/kg,ip measured after 6 weeks by H and E staining based assay; format: organism-based; conditions: in vivo, 1008 h

For CC(C)c1cc(C(=O)N(C)Cc2ccc(C(=O)NO)cc2)c(O)cc1O, the inhibition (Mus musculus) was “Active”, the inhibition [1] was “Dde” and the Activity [2] was “Non-Toxic”. For the same compound, the inhibition [3] was “Active”, the Activity (NCI-H1975) was 9.01% and the IC50 (Histone deacetylase 7) was 1690 nM. For the same compound, the inhibition [4] was “Dde” and the Activity [5] was “Non-Toxic”.
